What all share (assay): DTP human tumour cell line panel, 48 h
In assay [1] the test system is U251 CNS.
Assay [2] concerns NCI-H460 lung.
Assay [3] has as its system K-562 leukemia.
Assay [4] has as its system BT-549 breast.
Assay [5] relates to LOX IMVI melanoma.
In assay [6] the test system is SW-620 colon.
For assay [7], the system named is SR leukemia.
In assay [8] the test system is OVCAR-4 ovarian.
Assay [9] has as its system CCRF-CEM leukemia.
Assay [10] concerns SN12C renal.
Assay [11] concerns HS 578T breast.
Assay [12] relates to NCI/ADR-RES ovarian.
Assay [13] has as its system MDA-N.
For assay [14], the system named is PC-3 prostate.
The test system of assay [15] is OVCAR-3 ovarian.
The subject of assay [16] is MOLT-4 leukemia.
Assay [17] deals with SNB-75 CNS.
Assay [18] has as its system IGROV1 ovarian.
The subject of assay [19] is NCI-H522 lung.

The TGI is the concentration giving total growth inhibition. A lower TGI goes with more potent growth arrest. The GI50 is the concentration giving 50% growth inhibition.

Values joined by “and” are separate entries in the source; they are usually repeats but may differ in a detail not shown here. Equal values may be shown once.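 Method: 48-hour compound exposure of cells in 96-well plates, five concentrations, linear interpolation of endpoints. Here, GI50 denotes the concentration required for 50% inhibition of growth. TGI: total growth inhibition.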 Bounds are passed on as bounds.

For `Cc1cc(C)n(C(=O)CSc2nnc(SCC(=O)n3nc(C)cc3C)s2)n1`, the TGI in assay [1], in [2], in assay [3], in assay [4], in assay [5] and in [6] was greater than 100 µM throughout. Moreover, the TGI in [7] was greater than 100 µM; in [8], greater than 100 µM; in [9], greater than 100 µM; in assay [10] it was greater than 100 µM; in assay [11], 89.3 µM; in assay [12], greater than 100 µM. The TGI in assay [13], in assay [14], in [15], in assay [16] and in assay [17] was greater than 100 µM in each case.
With `COC(=O)c1cc(C)n(CN(Cc2ccccc2)Cn2nc(C(=O)OC)cc2C)n1`, the TGI was greater than 100 µM in [1]; greater than 100 µM in [2]; greater than 100 µM in assay [3]; greater than 100 µM in [4]; greater than 100 µM in assay [5]; greater than 78 µM in assay [6]. The TGI in [8] was greater than 100 µM; in [9], greater than 67.6 µM; in assay [10] it was greater than 100 µM; in assay [11], greater than 100 µM; in assay [12], greater than 100 µM; in [13] it was greater than 100 µM. Also, the TGI in assay [18], in assay [14], in assay [15], in assay [19], in [16] and in assay [17] was greater than 100 µM in each case.
Take `CCC(=O)NCCc1c2c3c(ccnc3c3ncsc13)-c1ccccc1N2`: the TGI is greater than 79.7 µM in assay [1]; 29.1 µM in assay [2]; greater than 100 µM in [3]; 57.3 µM in assay [4]; greater than 82.6 µM in [5]; greater than 100 µM in [6]. Moreover, the TGI in assay [8] was greater than 100 µM; in assay [9] it was greater than 100 µM; in [10], greater than 100 µM; in [11] it was 18.7 µM; in assay [12] it was greater than 100 µM; in assay [13], greater than 100 µM. Also, the TGI in [18] is greater than 100 µM; in assay [14], greater than 100 µM; in assay [15] it was greater than 66.5 µM; in assay [19], 38.4 µM; in assay [16], greater than 64.5 µM; in [17], greater than 88.3 µM.
Consider `Cc1cc(C)n(CN(Cn2nc(C)cc2C)c2ccccc2)n1`, for which the TGI in [1] was 44 µM; in assay [2], greater than 100 µM; in [3], 46.1 µM; in assay [4], 69.2 µM; in assay [5], 23.8 µM; in [6], 69.8 µM. The TGI in [7] is 14.9 µM; in assay [8] it was 52 µM; in assay [9], 83.9 µM; in assay [10], 98.7 µM; in assay [11] it was greater than 100 µM; in assay [12] it was 57.7 µM. Besides, the TGI in assay [13] is 27.6 µM; in [18] it was 95.2 µM; in assay [14], greater than 100 µM; in assay [15], 66.6 µM; in assay [19] it was 52.8 µM; in [16] it was 28.3 µM.
Consider `O=C(Nc1nc(C23CC4CC(CC(C4)C2)C3)cs1)c1cc2c(ccc3ccccc32)oc1=O`, for which the TGI in [1], in assay [2], in [3], in assay [4], in assay [5] and in assay [6] was greater than 100 µM in each case. Moreover, the TGI in [7], in [8], in assay [9], in [10], in assay [11] and in assay [12] was greater than 100 µM in each case. In addition, the TGI in assay [13], in assay [18], in assay [14], in assay [15], in [19] and in assay [16] was greater than 100 µM each time.
Regarding `COc1ccc(CNC(=O)[C@H](Cc2ccc(O)cn2)NC(C)=O)cc1`, the TGI in [1], in [2], in assay [3], in assay [4], in assay [5] and in [6] was greater than 100 µM throughout. Further, the TGI in [7], in assay [8], in [9], in assay [10], in assay [11] and in assay [12] was greater than 100 µM each time. Moreover, the TGI in assay [13], in assay [18], in assay [14], in [15], in assay [19] and in [16] was greater than 100 µM throughout.
On to `NC(=S)NS(=O)(=O)c1ccc(F)cc1F`, for which the TGI in [1], in [2], in [3], in assay [4], in [5] and in assay [6] was greater than 100 µM throughout. Besides, the TGI in assay [8], in assay [9], in [10], in assay [11], in [12] and in [13] was greater than 100 µM in each case. Besides, the concentration for total growth inhibition (TGI) in assay [18], in assay [14], in [15], in assay [19], in assay [16] and in assay [17] was greater than 100 µM in each case.
On to `N#CCCN(CCC#N)c1ccc(C(N=Nc2ccc(Cl)cc2)=Nc2ccc(F)cc2)cc1`, for which the TGI in assay [1], in assay [2], in [3], in assay [4], in [6] and in assay [7] was greater than 100 µM in each case. The TGI in [8], in assay [9], in assay [10], in [11], in assay [12] and in [13] was greater than 100 µM throughout. The TGI in [18], in assay [14], in [15], in [19], in [16] and in assay [17] was greater than 100 µM in each case.
Regarding `CN1C(=O)C23CCCCC2CC1(c1ccccc1)S3` (stereo unspecified), the TGI in assay [1], in assay [3], in [4], in [5], in assay [6] and in [7] was greater than 100 µM in each case. Moreover, the TGI in [8], in assay [10], in [11], in assay [12], in assay [13] and in [18] was greater than 100 µM each time. Further, the TGI in assay [14], in assay [15], in [19] and in assay [16] was greater than 100 µM each time.
Turning to `C=C1CC(COc2ccc3c(C)cc(=O)oc3c2)(c2ccccc2)OC1=O` (stereo unspecified), the TGI in assay [1] was 23.6 µM; in assay [2], 23.5 µM; in assay [4] it was 3.18 µM; in assay [5], 3.1 µM; in [6], 2.31 µM; in assay [7] it was greater than 31.6 µM. In addition, the TGI is 21.1 µM in assay [10]; greater than 27 µM in assay [11]; 16.6 µM in assay [12]; 5.78 µM in assay [13]; 3.57 µM in assay [18]; 5.78 µM in [14]. The TGI in assay [15] stood at 5.59 µM; in [19], 3.37 µM; in [16], 6.77 µM; in [17], 19.2 µM.
As to `CCOC(=O)c1[nH]c2nc(SC)nc(Nc3ccccc3Cl)c2c1N`, the TGI in assay [1] was 31 µM; in assay [2], 41.1 µM; in assay [3] it was 40.5 µM; in [4], 82.1 µM; in [5], 44.8 µM; in assay [6], greater than 100 µM. The TGI was 60.3 µM in [8]; 46.8 µM in assay [9]; greater than 100 µM in [10]; 61.8 µM in [11]; 73.3 µM in assay [12]; greater than 100 µM in assay [13]. Further, the TGI in assay [18] came out at 86.2 µM; in assay [14] it was 37.1 µM; in assay [15] it was 75.4 µM; in [19], 53.4 µM; in assay [16], 30.5 µM; in assay [17] it was 38.4 µM.
For the molecule `CCOC(=O)NC(=S)c1ccc(O)c2ccccc12`, the TGI in assay [1] was greater than 100 µM; in assay [2] it was greater than 100 µM; in assay [3], greater than 100 µM; in assay [4] it was 95.2 µM; in [5], greater than 100 µM; in assay [6], greater than 100 µM. The TGI in [7] was greater than 100 µM; in assay [8], greater than 100 µM; in [9], 46.7 µM; in assay [11], greater than 100 µM; in assay [12], greater than 100 µM; in [13], greater than 100 µM. The TGI in assay [18] was 49.1 µM; in [14], greater than 100 µM; in assay [15] it was greater than 100 µM; in [19] it was greater than 100 µM; in assay [16], greater than 100 µM.
`O=C(O)C12C3CCC(O3)C1(C(=O)O)C1CCC2O1` (stereo unspecified): the TGI in assay [1], in assay [2], in assay [3], in assay [4], in [5] and in assay [6] was greater than 100 µM in each case. Further, the TGI in [9], in [10], in assay [11], in assay [12], in assay [13] and in assay [18] was greater than 100 µM throughout. In addition, the TGI in [14], in assay [15], in [19], in assay [16] and in assay [17] was greater than 100 µM in each case. For the same molecule, the GI50 in assay [13] is 31.3 µM and > 100 µM.
Regarding `Cc1cc2c(cc1C)C(=O)/C(=N/Nc1ccc(F)cc1)CCO2`, the TGI in assay [1], in assay [2], in assay [3], in assay [4], in assay [5] and in [6] was greater than 100 µM throughout. The TGI in assay [7], in [8], in assay [9], in [10], in [11] and in [12] was greater than 100 µM in each case. In addition, the TGI in assay [13], in assay [18], in assay [14], in assay [15], in [19] and in assay [16] was greater than 100 µM in each case.
Regarding `COC(=O)C1C(C(=O)OC)C1(Br)CBr` (stereo unspecified), the TGI was greater than 100 µM in [1]; greater than 100 µM in assay [2]; 94.3 µM in [4]; 51.5 µM in assay [5]; greater than 100 µM in assay [6]; 46.8 µM in [7]. The TGI was greater than 100 µM in assay [8]; 79.4 µM in assay [10]; greater than 100 µM in assay [11]; greater than 100 µM in assay [12]; greater than 100 µM in assay [13]; greater than 100 µM in assay [18]. Also, the TGI in assay [14] is greater than 100 µM; in [15], greater than 100 µM; in assay [19], 14.1 µM; in assay [16], 21 µM; in assay [17], greater than 100 µM.
Take `COc1ncnc2c1cnn2Cc1cn(CCCCO)nn1`: the TGI in assay [1], in assay [2], in assay [3], in assay [4], in assay [5] and in [6] was greater than 100 µM each time. Also, the TGI in [7], in assay [8], in [9], in assay [10], in assay [11] and in assay [12] was greater than 100 µM in each case. Also, the TGI in assay [13], in assay [18], in assay [14], in assay [15], in [19] and in [16] was greater than 100 µM throughout.

Values taken from PubChem BioAssay (NCI).
